# Laboratory results: patent publication US20050187409A1, “Inhibitors of RNase P proteins as antibacterial compounds” (priority 2003, published 2005)
# What was measured:
# [1] = target: N. gonorrhea RNase P (M1 RNA + C5 protein) (Neisseria gonorrhoeae, UniProt Q5F4W3); experiment: Time resolved fluorescence (TRF) RNase P inhibition assay; type: biochemical; conditions: 30 min enzyme reaction, ptGLN substrate; read-out: N. gonorrhoeae TRF IC50(μM) (Example 15)
# Description: The ability of compounds of the invention to inhibit RNase P enzymes can be assessed by standard techniques. For example, the cleavage of ptRNA^Gln by the enzyme N. Gonorrhea RNase P, can be monitored in the presence and absence of a candidate compound as described in the Example 15. The progress of the RNase P-mediated cleavage reaction can be assessed by measuring the […] hybridized to the cleaved substrate.
# Time Resolved Fluorescence RNase P Inhibition Assay
# 96-well Nunc MaxiSorp FluoroNunc plates were coated with 50 μl/well of 1 μg/ml of streptavidin in base buffer (150 mM KCl, 5 mM MgCl2, 50 mM Tris, pH 7.6) and incubated overnight. The plates were washed using TRF.96 protocol, and then blocked with 150 μl of a 1 mg/ml BSA solution in base buffer and incubated with shaking for sixty minutes. The plates were then washed twice with base buffer plus 0.01% Tween20. 50 μl of 40 nM T17-bt (biotinylated DNA oligonucleotide complementary to the RNaseP substrate leader sequence used to capture intact RNaseP substrate) was then added to all wells, and the plates were incubated with shaking for 1 hr.
# A 0.4 nM solution of N. gonorrhea M1 RNA was made from a 1 μM stock solution. A 0.5 nM solution of N. gonorrhea C5 protein is made by diluting a 10 μM stock. ΔUL-ptGLN UTP-bt (10 μM stock) was diluted into PA buffer for a concentration of 40 nM.
# Compounds were serially diluted in DMSO from 20 mM stocks to 6, 2, 0.6, 0.2, and 0.06 mM dilutions. These titrations were then diluted (2 μl to 100) in PA buffer, and 12.5 μl of each concentration was added in duplicate to a 96-well V-bottom polypropylene plate. The highest concentration was put in row G and the lowest in row B. Rows A & H received 12.5 μl of DMSO/PA buffer.
# The enzyme reaction was initiated in the V-bottom polypropylene plates containing compound dilutions by adding 12.5 μl of the N. gonorrhea M1 solution to rows A-G. PA buffer was added to row H. 12.5 μl of the C5 solution was added similarly to the M1 solutions. 12.5 μl of the substrate solution was then added to all wells. The plates were incubated for 30 minutes at which time 12.5 μl of stop buffer was added to all wells. (Stop buffer: 500 μg/ml polyC/50 nM SA-Eu in 335 mM MgCl2 PA buffer).
# The T17-biotin-coated plate was washed three times, and 37.5 μl of 75 mM MgCl2 PA buffer was added to each well. After 30 minutes incubation with the stop buffer, 12.5 μl from all of the enzyme reaction wells was transferred to the T17 plates. The plates were then incubated for 1.5 hr at room temperature with shaking. The plates were washed three times and 40 μl of Delfia enhancement solution (Wallac Oy) was added to all wells. The plates were then read on the Victor 2 plate reader.
# [2] = target: T1, N. gonorrhoeae RNase P holoenzyme (Neisseria gonorrhoeae, UniProt Q5F4W3); experiment: biochemical; conditions: 32P-labelled pGln substrate, room temperature; read-out: N. gonorrhoeae Gel assay IC50(μM) (Example 16)
# T1 sequence (Q5F4W3 1-121): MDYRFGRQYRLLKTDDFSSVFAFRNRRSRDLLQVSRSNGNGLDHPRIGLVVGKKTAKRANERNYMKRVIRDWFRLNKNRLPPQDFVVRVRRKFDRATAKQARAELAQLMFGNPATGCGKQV
# Protocol: RNase P Inhibition Polyacrylamide Gel Assay
# The substrate, the precursor of tRNA^Gln, (pGln), from Synechocystis (Pascual and Vioque, 1999), was synthesized in vitro from the corresponding cDNA by T7 RNA polymerase in the presence of α^32P-GTP. Each control RNase P reaction of 10 μl contained 50 mM Tris-HCl (pH 7.8), 10 mM MgCl2, 100 mM NH4Cl, 1 mM dithiothreitol, and 0.4-1.0 pmol pGln substrate, radiolabeled to a specific activity of 1000-10,000 cpm/pmol. The reaction mixture, containing 0.1-1 nM holoenzyme, was incubated for 5-60 min at room temperature (18-24° C.), and the reaction was terminated by addition of an equal volume of 40 mM EDTA/8 M urea. The samples were electrophoresed in denaturing 8% polyacrylamide gels. The activity was quantified by exposure of the gel to a phosphorimaging screen. For test reactions that require the addition of compounds, the RNA subunits were pre-incubated with compound for 10 min at room temperature in the presence of buffer, followed by addition of the protein subunit. After a further 10 minutes of incubation, the radiolabeled substrate was added, and the reaction initiated. Products were analyzed as just described. The IC50 was the concentration of compound that was required to inhibit RNase P activity by 50%.
# N. gonorrhoeae = experiment: Bacterial inhibition assay (growth, MTS readout); type: cell-based; conditions: CAMHB-3% LHB medium, 35° C., 5% CO2, 24 hours
# Protocol: (§1) Compounds of the invention (see Table 5) were assayed for their ability to inhibit bacterial growth. Compounds were diluted from 10 mM DMSO stocks to 3 mM and 1 mM in DMSO. The compounds were further diluted from these stocks into saline for 200, 120, and 20 μM stocks. Control antibiotics were diluted similarly. Overnight cultures of bacteria were made in the following manner. N. gonorrhea was streaked onto a chocolate agar plate and incubated at 35° C./5% CO2. Rather than make an overnight culture of S. pyogenes, a loopful of S. pyogenes from a blood plate or a stock plate was used the following day for direct cell suspension.
# (§2) On the following day bacteria were prepared by dilution into saline with O.D. […] readings taken to determine the concentration of the bacteria. CFUs (colony forming units) were determined using the formula: CFU/mL=OD625×(1.5×10^8 CFU/mL/OD McFarland std)×dilution. The four bacterial cultures were diluted initially to 5.5×10^7 CFU/mL. The bacteria were then further diluted into medium to 5.5×10^5 CFU/mL for S. pyogenes and 5.5×10^6 CFU/mL for N. gonorrhea. S. pyogenes and N. gonorrhea were grown in CAMHB-3% LHB medium. The bacteria were added one per plate at 200 μL per well. Compounds were added in 10 μL aliquots for final concentrations of 10, 3, and 1 μM in duplicate. Control antibiotics, penicillin for S. pyogenes and ciprofloxacin for N. gonorrhea, were added from 0.8 mg/ml to 0.003 mg/ml. Plates were incubated at 35° C. with O2 for 16-20 hours for S. pyogenes, and read at OD665 in a Victor2 plate reader. Plates were incubated at 35° C. with 5% CO2 for 24 hours for N. gonorrhea at which time 40 μL of MTS reagent is added per well and incubated for 1 hour in same incubator. The plates were read at OD490. Compounds were tested at 1 μM, 3 μM, and 10 μM concentrations. The results, which are expressed as a percentage of the control, were calculated using equation 2. In this equation, O.D. is optical density; (O.D. compounds+bacteria) is the optical density observed for bacteria grown in the presence of a compound of the invention; (O.D. blank) is the optical density in the absence of bacteria; and (O.D. bacteria) is the optical density observed for bacteria growing uninhibited. Other RNase P inhibitors may be tested similarly using any bacteria of interest. [formula]
# S. pyogenes = experiment: Bacterial inhibition assay (growth, OD readout); type: cell-based; conditions: CAMHB-3% LHB medium, 35° C., 16-20 hours
# Protocol: as §1, §2
# [3] = system: peripheral blood mononuclear cells (PBMC); experiment: Cellular toxicity assay (MTS) on PBMC; type: cell-based, human; conditions: 24 hours incubation, MTS reagent; read-out: PBMC's TC50
# Protocol: Compounds of the invention (see Table 6) were assayed for cellular toxicity as follows. Whole blood was drawn from a volunteer, and the red cells were separated from the buffy coat cells by centrifugation over ficoll-paque. The resulting peripheral blood mononuclear cells (PBMC) were collected from the interface and washed extensively with PBS by centrifugation to remove platelets and cellular debris. The cells were then plated in 96-well tissue culture plates at a density of 5×10^5 cells per mL at 200 μL per well. After an hour incubation, the candidate compounds were added at the appropriate concentrations diluted from DMSO stocks into assay buffer (RPMI medium supplemented with 10% FCS). The cells were incubated at 37° C., 100% humidity and 5% CO2 for 24 hours at which time MTS reagent was added per the manufacturer's (Promega) instructions. After 2-3 hours incubation the optical density of the wells was read on a spectrophotometer. […] The data are evaluated using equation 2 as described in Example 17, where bacterial cells are replaced by PBMC cells in the measurements. The data describes the toxicity of these compounds to a representative human cell population (PBMC's).
structure (smiles),measurement,setting,value
"CC(=NNC(=N)N)c1cccc(NC(=O)[C@H](Cc2ccc(-c3ccccc3)cc2)NC(=O)c2cccc(I)c2)c1 [MES 10908, Guanylhydrazone of (S)-1-(3-iodobenzoyl)-N-(3-acetylphenyl)biphenyl-alaninamide]",IC50,[1],5 µM
same,IC50,[2],6 µM
same,MIC,N. gonorrhoeae,>100 µM
same,MIC,S. pyogenes,10 µM
same,CC50,[3],5 µM
